From ChEMBL document CHEMBL5126606, “Sodium-Glucose Cotransporter Inhibitors as Antidiabetic Drugs: Current Development and Future Perspectives” (J Med Chem, 2022)
Values belong to the molecule of their own block, whether it stands above or below them.

How the values were obtained:
[1] = target: T1, Sodium/glucose cotransporter 2 (Homo sapiens, UniProt P31639); test: Inhibition of human SGLT2 expressed in CHO cells assessed as inhibition of [14C] labeled AMG accumulation incubated for 15 mins; format: cell-based
T1 sequence (P31639 whole entry): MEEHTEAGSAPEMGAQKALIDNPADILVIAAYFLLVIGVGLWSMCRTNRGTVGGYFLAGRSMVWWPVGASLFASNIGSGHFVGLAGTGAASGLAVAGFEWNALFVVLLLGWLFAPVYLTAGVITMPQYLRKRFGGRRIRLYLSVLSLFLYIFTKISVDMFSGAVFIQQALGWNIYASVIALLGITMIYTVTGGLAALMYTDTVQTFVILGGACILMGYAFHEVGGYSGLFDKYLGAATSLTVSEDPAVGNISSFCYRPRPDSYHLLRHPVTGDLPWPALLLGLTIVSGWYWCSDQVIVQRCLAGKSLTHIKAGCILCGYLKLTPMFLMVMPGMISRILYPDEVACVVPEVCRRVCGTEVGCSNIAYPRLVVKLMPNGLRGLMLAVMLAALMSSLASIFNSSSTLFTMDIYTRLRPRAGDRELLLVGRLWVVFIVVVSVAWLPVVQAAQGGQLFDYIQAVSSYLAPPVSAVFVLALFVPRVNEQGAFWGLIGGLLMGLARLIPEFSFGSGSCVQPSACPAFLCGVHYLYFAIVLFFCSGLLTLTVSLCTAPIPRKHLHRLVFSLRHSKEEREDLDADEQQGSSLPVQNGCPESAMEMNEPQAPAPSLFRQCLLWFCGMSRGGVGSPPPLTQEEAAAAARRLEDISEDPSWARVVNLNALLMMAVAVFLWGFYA

[2] = target: T1, Sodium/glucose cotransporter 2; test: Inhibition of human SGLT2
[3] = target: T1, Sodium/glucose cotransporter 2; test: Inhibition of human SGLT2 expressed in xenopus oocytes assessed as inhibition of [14C]AMG uptake; format: cell-based, Oocyte
[4] = target: T2, Sodium/glucose cotransporter 1 (Homo sapiens, UniProt P13866); test: Inhibition of full length N-terminal HA-tagged human SGLT1 expressed in HEK293 cells assessed as inhibition of [14C]AMG uptake; format: cell-based
T2 sequence (P13866 whole entry): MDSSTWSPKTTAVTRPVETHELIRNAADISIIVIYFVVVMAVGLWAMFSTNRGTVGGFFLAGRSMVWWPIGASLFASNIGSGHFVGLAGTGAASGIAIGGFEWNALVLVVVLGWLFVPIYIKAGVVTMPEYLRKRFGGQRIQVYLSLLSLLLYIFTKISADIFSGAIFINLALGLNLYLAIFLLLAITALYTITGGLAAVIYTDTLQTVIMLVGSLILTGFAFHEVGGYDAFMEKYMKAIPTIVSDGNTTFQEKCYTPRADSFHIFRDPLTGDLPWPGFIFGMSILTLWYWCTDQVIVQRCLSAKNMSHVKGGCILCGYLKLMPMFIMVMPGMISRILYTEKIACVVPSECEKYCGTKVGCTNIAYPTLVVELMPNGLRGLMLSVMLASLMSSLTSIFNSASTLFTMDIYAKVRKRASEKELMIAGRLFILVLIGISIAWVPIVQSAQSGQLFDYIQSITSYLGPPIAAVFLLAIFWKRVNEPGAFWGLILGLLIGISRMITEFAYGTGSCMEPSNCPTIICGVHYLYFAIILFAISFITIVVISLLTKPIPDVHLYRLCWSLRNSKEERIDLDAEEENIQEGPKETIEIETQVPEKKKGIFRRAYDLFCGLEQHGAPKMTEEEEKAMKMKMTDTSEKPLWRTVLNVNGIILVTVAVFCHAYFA

[5] = species: Homo sapiens; test: Selectivity ratio of IC50 for full length N-terminal HA-tagged human SGLT1 expressed in HEK293 cells to IC50 for full length N-terminal HA-tagged human SGLT2 expressed in HEK293 cells; format: cell-based
[6] = Half life in C57BL/6J mouse at 10 mg/kg,po measured upto 24 hrs by LC-MS/MS analysis; format: ADME, organism-based; details: in vivo
[7] = Oral bioavailability in C57BL/6J mouse at 10 mg/kg measured upto 24 hrs by LC-MS/MS analysis; format: ADME, organism-based; details: in vivo
[8] = target: T1, Sodium/glucose cotransporter 2; test: Inhibition of full length N-terminal HA-tagged human SGLT2 expressed in HEK293 cells assessed as inhibition of [14C]AMG uptake; format: cell-based
[9] = target: T2, Sodium/glucose cotransporter 1; test: Inhibition of human SGLT1 expressed in CHO cells assessed as inhibition of [14C] labeled AMG accumulation incubated for 15 mins; format: cell-based
[10] = target: T1, Sodium/glucose cotransporter 2; test: Inhibition of human SGLT2 expressed in CHO-K1 cells; format: cell-based
[11] = target: T1, Sodium/glucose cotransporter 2; test: Inhibition of recombinant human SGLT2 expressed in COS-7 cells assessed as inhibition of [14C]AMG uptake; format: cell-based

SMILES: Cc1cc(O)c(C(=O)CCc2ccc3occc3c2)c(O[C@@H]2O[C@H](CO)[C@@H](O)[C@H](O)[C@H]2O)c1
- EC50 [3]: 5.2 nM

SMILES: COc1ccc(Cc2cc([C@H]3O[C@@H](SC)[C@H](O)[C@@H](O)[C@@H]3O)ccc2Cl)cc1
- IC50 [4]: 15.9 nM
- Ratio IC50 [5]: 7.6
- half-life [6]: 7 h
- bioavailability [7]: 87%
- IC50 [8]: 2.1 nM

SMILES: CCOC(=O)OC[C@H]1O[C@@H](Oc2ccccc2Cc2ccc(OC)cc2)[C@H](O)[C@@H](O)[C@@H]1O [SERGLIFLOZIN ETABONATE]
- Ki [10]: 151 nM

SMILES: Cc1cc(OCCCNCCC(N)=O)ccc1Cc1c(O[C@@H]2O[C@H](CO)[C@@H](O)[C@H](O)[C@H]2O)n[nH]c1C(C)C
- Ki [11]: 13600 nM

Next, values leading:

- EC50 [1]: 63 nM
SMILES: COC(=O)NNC[C@H]1O[C@@H](n2cc(Cc3ccc(C4CC4)cc3)c3c(Cl)cccc32)[C@H](O)[C@@H](O)[C@@H]1O

- IC50 [2]: 1.8 nM
SMILES: CCOc1ccc(Cc2cc([C@H]3O[C@@H](SC)[C@H](O)[C@@H](O)[C@@H]3O)ccc2Cl)cc1

- EC50 [1]: 455 nM
SMILES: CONC[C@H]1O[C@@H](n2cc(Cc3ccc(C4CC4)cc3)c3c(Cl)cccc32)[C@H](O)[C@@H](O)[C@@H]1O

- EC50 [1]: 286 nM
SMILES: CO/N=C/[C@H]1O[C@@H](n2cc(Cc3ccc(C4CC4)cc3)c3c(Cl)cccc32)[C@H](O)[C@@H](O)[C@@H]1O

- EC50 [1]: 33 nM
- EC50 [9]: 37 nM
SMILES: CC(=O)NNC[C@H]1O[C@@H](n2cc(Cc3ccc(C4CC4)cc3)c3c(Cl)cccc32)[C@H](O)[C@@H](O)[C@@H]1O

- EC50 [1]: 212 nM
SMILES: O/N=C/[C@H]1O[C@@H](n2cc(Cc3ccc(C4CC4)cc3)c3c(Cl)cccc32)[C@H](O)[C@@H](O)[C@@H]1O

- EC50 [1]: 258 nM
SMILES: O=C(N/N=C/[C@H]1O[C@@H](n2cc(Cc3ccc(C4CC4)cc3)c3c(Cl)cccc32)[C@H](O)[C@@H](O)[C@@H]1O)c1ccccc1
